Assay results as given in patent US8293537B2, “Systems and methods for hemoglobin analysis” (priority 2010, dated 2012).
Where “and” joins values, the source holds several entries; their conditions need not be identical. Equal values may be shown once.

Assays:
Format in all cases: biochemical
peroxidase = experiment: Peroxidase assay in saliva (Amplex Red); conditions: 500 ppm; pooled or unpooled saliva; 30 minutes; FIGS. 26-29
Description: To determine the effect of various GRAS compounds as inhibitors of peroxidase activity, a standard assay using Amplex® Red (Life Technologies), which releases a fluorescent oxidation product.
The test compounds, such as GRAS materials or cocktails of same, were prepared at a concentration of 500 ppm in distilled water. For the assay, 50 μl samples of test compounds were mixed with 20-30 μl of saliva (either “pooled” or “unpooled”) prior to the addition of Amplex® Red. […] Reactions were allowed to run for 30 minutes during these assays.

Lysozyme = target: T1, Lysozyme (Homo sapiens, UniProt P61626); experiment: Lysozyme inhibition saliva screening (fluorescein-labeled Micrococcus lysodeikticus); conditions: 100% saliva samples (data not shown)
T1 sequence (P61626 19-148): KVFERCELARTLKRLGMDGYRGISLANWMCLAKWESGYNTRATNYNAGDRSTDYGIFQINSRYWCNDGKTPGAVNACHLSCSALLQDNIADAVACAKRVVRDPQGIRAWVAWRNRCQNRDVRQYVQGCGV
Description: Further details of these five compounds may also be seen in Table 5.

α-amylase = target: T2, α-amylase (Homo sapiens, UniProt P0DUB6); experiment: α-Amylase inhibition saliva screening (chromogenic substrate, 405 nm); conditions: for Ave (absorbance at 405 nm) / individual reading (absorbance at 405 nm): saliva; for Ave (absorbance at 405 nm): 5,000 ppm; for individual reading (absorbance at 405 nm): test compound prepared at 5,000 ppm, 37° C.; for α-Amylase inhibition: 100% saliva samples, FIG. 11
T2 sequence (P0DUB6 16-511): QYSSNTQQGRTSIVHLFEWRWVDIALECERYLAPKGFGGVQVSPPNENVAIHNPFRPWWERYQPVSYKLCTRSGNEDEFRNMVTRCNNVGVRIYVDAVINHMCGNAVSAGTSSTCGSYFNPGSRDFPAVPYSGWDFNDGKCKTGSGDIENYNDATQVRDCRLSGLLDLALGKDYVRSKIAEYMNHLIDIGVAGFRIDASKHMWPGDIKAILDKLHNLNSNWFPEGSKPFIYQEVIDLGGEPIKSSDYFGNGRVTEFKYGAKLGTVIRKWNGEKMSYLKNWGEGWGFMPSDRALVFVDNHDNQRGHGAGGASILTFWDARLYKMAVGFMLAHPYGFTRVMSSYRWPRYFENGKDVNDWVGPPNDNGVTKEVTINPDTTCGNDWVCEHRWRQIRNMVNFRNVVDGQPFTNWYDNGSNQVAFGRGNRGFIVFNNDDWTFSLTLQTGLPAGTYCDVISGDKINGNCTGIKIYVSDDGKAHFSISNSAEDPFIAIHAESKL
Description: Further details of these five compounds may also be seen in Table 4.

For `Cn1c(=O)c2c(ncn2C)n(C)c1=O` [CDI-33, Caffeine], the peroxidase inhibition (peroxidase) was “showed significant peroxidase inhibition capabilities”.
With `O=C(O)c1ccccc1` [CDI-40, Benzoic acid] the Lysozyme inhibition (Lysozyme) was “shown to inhibit Lysozyme”.
For Aluminum sulfate hydrate [CDI-34], the “Ave (absorbance at 405 nm)” value (α-amylase; 0 min) was 0.40, the “individual reading (absorbance at 405 nm)” value (shortened to “individual reading”) (α-amylase; 0 min, sulfate hydrate) was 0.40 (2×) and 0.36 and 0.45 and the α-Amylase inhibition (α-amylase) was “shown to inhibit α-Amylase”. The “Ave (absorbance at 405 nm)” value (α-amylase; 5 min) was 0.50, the “individual reading” value (α-amylase; 5 min, sulfate hydrate) was 0.49 and 0.50 (2×) and 0.52 and the “Ave (absorbance at 405 nm)” value (α-amylase; 15 min) was 0.56. The “individual reading” value (α-amylase; 15 min, sulfate hydrate) was 0.53 and 0.61 and 0.54 and 0.56.
In the case of “Aluminum potassium sulfate dodecahydrate [CDI-42]”, the “Ave (absorbance at 405 nm)” value (α-amylase; 0 min) is reported as 0.92, the “individual reading” value (α-amylase; 0 min) is reported as 0.80 and 1.13 and 0.90 and 0.84 and the α-Amylase inhibition (α-amylase) is reported as “shown to inhibit α-Amylase”. The “individual reading” value (α-amylase; 5 min) was 1.65 and 2.15 and 1.80 and 1.81, the “individual reading” value (α-amylase; 15 min) was 2.37 and 2.38 and 2.25 and 2.17 and the peroxidase inhibition (peroxidase) was “showed significant peroxidase inhibition capabilities”.
With `COc1ccc(O)c(C(C)(C)C)c1` [CDI-39, 3-tert--butyl-hydroxyanisole] the peroxidase inhibition (peroxidase) was “showed significant peroxidase inhibition capabilities”.
